According to the kinase profiling compilation of Christmann-Franck et al. (2016):

Experiments:
Assay in all cases: KINOMEscan competition binding
Conditions in all cases: compound 10.0 µM
[1] = tested on: ABL1 (human), P00519 [M351T]
ABL2 (human) = ABL2 (human) (UniProt P42684)
AKT2 (human) = AKT2 (human) (UniProt P31751)
ALK (human) = ALK (human) (UniProt Q9UM73)
AURKC (human) = AURKC (human) (UniProt Q9UQB9)
CAMK2G (human) = CAMK2G (human) (UniProt Q13555)
CDK18 (human) = CDK18 (human) (UniProt Q07002)
CIT (human) = CIT (human) (UniProt O14578)
CLK1 (human) = CLK1 (human) (UniProt P49759)
CLK3 (human) = CLK3 (human) (UniProt P49761)
CSF1R (human) = CSF1R (human) (UniProt P07333)
DCLK2 (human) = DCLK2 (human) (UniProt Q8N568)
EPHA8 (human) = EPHA8 (human) (UniProt P29322)
EPHB3 (human) = EPHB3 (human) (UniProt P54753)
[2] = tested on: FLT3 (human), P36888 [N841I]
FRK (human) = FRK (human) (UniProt P42685)
HIPK1 (human) = HIPK1 (human) (UniProt Q86Z02)
INSR (human) = INSR (human) (UniProt P06213)
[3] = target: JAK3 JH1 catalytic (human) (UniProt P52333)
MAP3K5 (human) = MAP3K5 (human) (UniProt Q99683)
MAPK4 (human) = MAPK4 (human) (UniProt P31152)
MARK2 (human) = MARK2 (human) (UniProt Q7KZI7)
MUSK (human) = MUSK (human) (UniProt O15146)
MYO3A (human) = MYO3A (human) (UniProt Q8NEV4)
NEK1 (human) = NEK1 (human) (UniProt Q96PY6)
NTRK1 (human) = NTRK1 (human) (UniProt P04629)
PRKCQ (human) = PRKCQ (human) (UniProt Q04759)
RAF1 (human) = RAF1 (human) (UniProt P04049)
RIOK3 (human) = RIOK3 (human) (UniProt O14730)
RIPK1 (human) = RIPK1 (human) (UniProt Q13546)
RIPK4 (human) = RIPK4 (human) (UniProt P57078)
RPS6KA6 KD2 (human) = RPS6KA6 KD2 (human) (UniProt Q9UK32)
SIK2 (human) = SIK2 (human) (UniProt Q9H0K1)
SLK (human) = SLK (human) (UniProt Q9H2G2)
STK10 (human) = STK10 (human) (UniProt O94804)
STK35 (human) = STK35 (human) (UniProt Q8TDR2)
STK38L (human) = STK38L (human) (UniProt Q9Y2H1)
TLK1 (human) = TLK1 (human) (UniProt Q9UKI8)
TYRO3 (human) = TYRO3 (human) (UniProt Q06418)
WEE1 (human) = WEE1 (human) (UniProt P30291)

MAP3K5 (human), sequence (Q99683 whole entry, looked up): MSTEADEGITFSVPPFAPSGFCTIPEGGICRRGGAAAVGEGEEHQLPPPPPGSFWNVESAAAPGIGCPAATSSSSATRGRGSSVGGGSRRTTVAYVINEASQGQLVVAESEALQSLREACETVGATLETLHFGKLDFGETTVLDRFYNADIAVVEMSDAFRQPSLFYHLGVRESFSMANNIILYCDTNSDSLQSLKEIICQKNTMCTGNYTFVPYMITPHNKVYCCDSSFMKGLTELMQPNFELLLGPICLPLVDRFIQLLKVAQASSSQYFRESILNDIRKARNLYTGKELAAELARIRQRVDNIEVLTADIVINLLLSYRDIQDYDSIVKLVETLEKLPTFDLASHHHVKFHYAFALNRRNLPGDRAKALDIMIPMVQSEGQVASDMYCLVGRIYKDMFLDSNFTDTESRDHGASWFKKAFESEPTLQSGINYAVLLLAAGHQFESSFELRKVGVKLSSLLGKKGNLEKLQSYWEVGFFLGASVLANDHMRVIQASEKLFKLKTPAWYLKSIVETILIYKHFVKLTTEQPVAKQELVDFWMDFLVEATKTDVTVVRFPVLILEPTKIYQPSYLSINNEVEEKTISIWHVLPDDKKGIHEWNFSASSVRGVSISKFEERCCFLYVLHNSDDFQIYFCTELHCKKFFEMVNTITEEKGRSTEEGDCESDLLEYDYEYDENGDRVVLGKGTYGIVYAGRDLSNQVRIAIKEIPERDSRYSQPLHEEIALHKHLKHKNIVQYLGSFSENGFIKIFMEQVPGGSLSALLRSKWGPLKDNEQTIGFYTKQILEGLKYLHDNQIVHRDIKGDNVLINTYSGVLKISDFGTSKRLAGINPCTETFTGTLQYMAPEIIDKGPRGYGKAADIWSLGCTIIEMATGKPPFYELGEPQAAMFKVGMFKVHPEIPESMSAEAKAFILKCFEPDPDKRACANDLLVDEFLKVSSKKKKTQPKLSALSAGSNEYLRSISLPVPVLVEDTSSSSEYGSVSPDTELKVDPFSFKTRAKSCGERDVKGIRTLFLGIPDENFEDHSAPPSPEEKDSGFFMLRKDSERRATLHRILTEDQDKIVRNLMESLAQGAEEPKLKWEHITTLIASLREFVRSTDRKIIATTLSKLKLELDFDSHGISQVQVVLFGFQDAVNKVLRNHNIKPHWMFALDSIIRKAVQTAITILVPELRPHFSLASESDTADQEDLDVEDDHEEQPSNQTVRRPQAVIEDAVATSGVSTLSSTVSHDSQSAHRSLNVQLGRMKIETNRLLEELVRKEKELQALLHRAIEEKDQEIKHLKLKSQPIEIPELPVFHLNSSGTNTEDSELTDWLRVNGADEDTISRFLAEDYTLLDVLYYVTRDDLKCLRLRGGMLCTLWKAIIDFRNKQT
ALK (human), sequence (Q9UM73 whole entry, looked up): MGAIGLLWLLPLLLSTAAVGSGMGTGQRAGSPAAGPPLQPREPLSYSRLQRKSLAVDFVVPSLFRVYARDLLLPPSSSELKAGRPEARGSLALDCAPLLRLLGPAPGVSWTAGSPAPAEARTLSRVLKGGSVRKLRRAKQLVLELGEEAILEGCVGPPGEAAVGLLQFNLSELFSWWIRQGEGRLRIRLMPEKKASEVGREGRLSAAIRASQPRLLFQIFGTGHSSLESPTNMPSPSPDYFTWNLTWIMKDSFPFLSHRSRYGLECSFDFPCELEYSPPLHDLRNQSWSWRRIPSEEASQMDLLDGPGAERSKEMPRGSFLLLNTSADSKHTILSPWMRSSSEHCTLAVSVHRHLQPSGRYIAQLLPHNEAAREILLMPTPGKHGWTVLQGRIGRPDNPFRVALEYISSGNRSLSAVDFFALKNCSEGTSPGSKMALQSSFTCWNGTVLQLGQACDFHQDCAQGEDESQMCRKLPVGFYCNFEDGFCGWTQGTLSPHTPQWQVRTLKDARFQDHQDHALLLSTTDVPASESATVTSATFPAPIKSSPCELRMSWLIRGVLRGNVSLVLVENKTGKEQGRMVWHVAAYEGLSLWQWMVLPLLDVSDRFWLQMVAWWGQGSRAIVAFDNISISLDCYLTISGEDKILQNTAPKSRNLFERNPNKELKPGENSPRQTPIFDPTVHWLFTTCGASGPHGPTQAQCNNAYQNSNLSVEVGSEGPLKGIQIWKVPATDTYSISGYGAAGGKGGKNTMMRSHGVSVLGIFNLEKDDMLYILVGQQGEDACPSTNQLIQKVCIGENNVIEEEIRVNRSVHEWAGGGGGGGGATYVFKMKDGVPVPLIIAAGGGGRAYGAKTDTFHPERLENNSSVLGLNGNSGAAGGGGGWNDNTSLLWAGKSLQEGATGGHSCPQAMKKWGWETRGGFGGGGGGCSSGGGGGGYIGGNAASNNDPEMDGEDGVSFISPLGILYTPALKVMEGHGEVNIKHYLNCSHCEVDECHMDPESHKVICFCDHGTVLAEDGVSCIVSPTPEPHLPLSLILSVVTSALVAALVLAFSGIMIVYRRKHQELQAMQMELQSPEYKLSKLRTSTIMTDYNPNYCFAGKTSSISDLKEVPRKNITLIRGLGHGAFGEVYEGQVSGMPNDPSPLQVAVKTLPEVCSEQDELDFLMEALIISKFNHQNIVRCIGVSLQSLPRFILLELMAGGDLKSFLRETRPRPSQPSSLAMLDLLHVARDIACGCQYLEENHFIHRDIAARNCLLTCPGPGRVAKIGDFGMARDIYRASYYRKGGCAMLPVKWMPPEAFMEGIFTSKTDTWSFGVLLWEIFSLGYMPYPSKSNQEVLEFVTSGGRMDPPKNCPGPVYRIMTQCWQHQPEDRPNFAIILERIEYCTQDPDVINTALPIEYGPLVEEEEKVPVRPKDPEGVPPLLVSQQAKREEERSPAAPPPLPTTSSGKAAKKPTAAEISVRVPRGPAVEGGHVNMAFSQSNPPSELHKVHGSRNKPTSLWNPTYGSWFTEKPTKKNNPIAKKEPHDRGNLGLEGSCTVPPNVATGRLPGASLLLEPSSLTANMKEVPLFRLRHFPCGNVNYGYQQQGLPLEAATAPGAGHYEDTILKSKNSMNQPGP
HIPK1 (human), sequence (Q86Z02 whole entry, looked up): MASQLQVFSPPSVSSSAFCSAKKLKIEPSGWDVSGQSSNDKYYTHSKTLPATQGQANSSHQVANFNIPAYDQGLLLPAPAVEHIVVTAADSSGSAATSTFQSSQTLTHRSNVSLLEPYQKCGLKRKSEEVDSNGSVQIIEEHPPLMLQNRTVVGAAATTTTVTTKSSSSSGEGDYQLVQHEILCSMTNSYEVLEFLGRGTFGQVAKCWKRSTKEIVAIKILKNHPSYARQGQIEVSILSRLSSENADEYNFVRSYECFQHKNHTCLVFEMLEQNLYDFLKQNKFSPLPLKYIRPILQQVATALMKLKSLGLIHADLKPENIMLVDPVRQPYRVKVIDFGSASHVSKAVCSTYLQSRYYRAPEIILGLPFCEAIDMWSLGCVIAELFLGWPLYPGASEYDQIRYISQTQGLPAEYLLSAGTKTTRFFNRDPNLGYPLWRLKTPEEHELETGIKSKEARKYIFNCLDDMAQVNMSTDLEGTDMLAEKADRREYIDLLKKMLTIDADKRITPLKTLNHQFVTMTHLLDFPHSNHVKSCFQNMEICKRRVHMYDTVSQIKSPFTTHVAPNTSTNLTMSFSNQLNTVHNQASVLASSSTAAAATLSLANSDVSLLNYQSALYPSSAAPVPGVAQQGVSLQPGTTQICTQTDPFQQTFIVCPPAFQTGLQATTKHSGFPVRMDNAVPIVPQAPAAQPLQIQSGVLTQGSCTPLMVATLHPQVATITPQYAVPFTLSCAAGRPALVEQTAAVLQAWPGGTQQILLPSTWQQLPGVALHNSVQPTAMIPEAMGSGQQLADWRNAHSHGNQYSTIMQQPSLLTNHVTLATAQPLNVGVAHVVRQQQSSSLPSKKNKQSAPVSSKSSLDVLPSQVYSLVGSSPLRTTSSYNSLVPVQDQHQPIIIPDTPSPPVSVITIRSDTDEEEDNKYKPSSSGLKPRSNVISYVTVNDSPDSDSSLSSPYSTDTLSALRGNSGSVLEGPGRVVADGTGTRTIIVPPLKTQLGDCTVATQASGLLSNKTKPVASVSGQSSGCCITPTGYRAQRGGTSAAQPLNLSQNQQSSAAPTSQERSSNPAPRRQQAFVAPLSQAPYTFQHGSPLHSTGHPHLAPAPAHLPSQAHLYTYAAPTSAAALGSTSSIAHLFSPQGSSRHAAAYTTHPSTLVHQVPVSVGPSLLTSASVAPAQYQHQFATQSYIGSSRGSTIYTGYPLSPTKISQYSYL
STK38L (human), sequence (Q9Y2H1 whole entry, looked up): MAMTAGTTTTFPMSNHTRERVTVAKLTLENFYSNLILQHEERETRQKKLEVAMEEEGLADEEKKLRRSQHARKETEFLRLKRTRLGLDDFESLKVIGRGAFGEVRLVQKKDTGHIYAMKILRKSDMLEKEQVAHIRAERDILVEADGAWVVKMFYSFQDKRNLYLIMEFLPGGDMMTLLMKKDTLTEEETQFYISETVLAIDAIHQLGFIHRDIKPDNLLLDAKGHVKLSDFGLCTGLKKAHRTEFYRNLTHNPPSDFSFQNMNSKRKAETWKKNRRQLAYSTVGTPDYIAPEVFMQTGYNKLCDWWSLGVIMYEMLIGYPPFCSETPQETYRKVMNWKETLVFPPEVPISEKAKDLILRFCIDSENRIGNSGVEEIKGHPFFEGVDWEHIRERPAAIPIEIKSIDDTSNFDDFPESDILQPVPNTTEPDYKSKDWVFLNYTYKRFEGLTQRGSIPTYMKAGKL
AURKC (human), sequence (Q9UQB9 whole entry, looked up): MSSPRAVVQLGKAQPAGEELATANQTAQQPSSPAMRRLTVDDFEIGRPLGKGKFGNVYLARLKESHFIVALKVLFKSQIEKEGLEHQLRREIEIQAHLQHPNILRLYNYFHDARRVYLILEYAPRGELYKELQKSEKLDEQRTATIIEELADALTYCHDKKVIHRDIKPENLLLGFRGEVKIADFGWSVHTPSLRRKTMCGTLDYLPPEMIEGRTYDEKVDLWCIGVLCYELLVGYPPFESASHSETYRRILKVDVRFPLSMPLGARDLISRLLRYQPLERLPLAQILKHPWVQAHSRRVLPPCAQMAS

| SMILES | kinase still bound, per cent of control [1] [%] | kinase still bound, per cent of control (ABL2 (human)) [%] | kinase still bound, per cent of control (AKT2 (human)) [%] | kinase still bound, per cent of control (ALK (human)) [%] | kinase still bound, per cent of control (AURKC (human)) [%] | kinase still bound, per cent of control (CAMK2G (human)) [%] | kinase still bound, per cent of control (CDK18 (human)) [%] | kinase still bound, per cent of control (CIT (human)) [%] | kinase still bound, per cent of control (CLK1 (human)) [%] | kinase still bound, per cent of control (CLK3 (human)) [%] | kinase still bound, per cent of control (CSF1R (human)) [%] | kinase still bound, per cent of control (DCLK2 (human)) [%] | kinase still bound, per cent of control (EPHA8 (human)) [%] | kinase still bound, per cent of control (EPHB3 (human)) [%] | kinase still bound, per cent of control [2] [%] | kinase still bound, per cent of control (FRK (human)) [%] | kinase still bound, per cent of control (HIPK1 (human)) [%] | kinase still bound, per cent of control (INSR (human)) [%] | kinase still bound, per cent of control [3] [%] | kinase still bound, per cent of control (MAP3K5 (human)) [%] | further results |
| --- | --- | --- | --- | --- | --- | --- | --- | --- | --- | --- | --- | --- | --- | --- | --- | --- | --- | --- | --- | --- | --- |
| O=C(NC1CC1)c1cccc(-c2ccc3c(NC(=O)C4CC4)n[nH]c3c2)c1 | 57 | 100 | 91 | 100 | 8.6 | 89 | 58 | 89 | 77 | 80 | 70 | 100 | 92 | 100 | 33 | 89 | 28 | 78 | 27 | 100 | kinase still bound, per cent of control (MAPK4 (human)): 100%; kinase still bound, per cent of control (MARK2 (human)): 45%; kinase still bound, per cent of control (MUSK (human)): 91%; kinase still bound, per cent of control (MYO3A (human)): 72%; kinase still bound, per cent of control (NEK1 (human)): 86%; kinase still bound, per cent of control (NTRK1 (human)): 60%; kinase still bound, per cent of control (PRKCQ (human)): 100%; kinase still bound, per cent of control (RAF1 (human)): 78%; kinase still bound, per cent of control (RIOK3 (human)): 6.8%; kinase still bound, per cent of control (RIPK1 (human)): 0.05%; kinase still bound, per cent of control (RIPK4 (human)): 84%; kinase still bound, per cent of control (RPS6KA6 KD2 (human)): 60%; kinase still bound, per cent of control (SIK2 (human)): 91%; kinase still bound, per cent of control (SLK (human)): 100%; kinase still bound, per cent of control (STK10 (human)): 57%; kinase still bound, per cent of control (STK35 (human)): 16%; kinase still bound, per cent of control (STK38L (human)): 96%; kinase still bound, per cent of control (TLK1 (human)): 51%; kinase still bound, per cent of control (TYRO3 (human)): 100%; kinase still bound, per cent of control (WEE1 (human)): 84% |
| CCN1CCN(Cc2ccc(Nc3ncc4c(n3)N(C)c3ccccc3C(=O)N4C)cc2C(F)(F)F)CC1 | 0.65 | 3 | 100 | 64 | 8.7 | 81 | 97 | 99 | 86 | 92 | 0.5 | 1.3 | 100 | 80 | 21 | 19 | 78 | 92 | 9.8 | 100 | kinase still bound, per cent of control (MAPK4 (human)): 100%; kinase still bound, per cent of control (MARK2 (human)): 40%; kinase still bound, per cent of control (MUSK (human)): 100%; kinase still bound, per cent of control (MYO3A (human)): 88%; kinase still bound, per cent of control (NEK1 (human)): 66%; kinase still bound, per cent of control (NTRK1 (human)): 34%; kinase still bound, per cent of control (PRKCQ (human)): 100%; kinase still bound, per cent of control (RAF1 (human)): 100%; kinase still bound, per cent of control (RIOK3 (human)): 38%; kinase still bound, per cent of control (RIPK1 (human)): 24%; kinase still bound, per cent of control (RIPK4 (human)): 12%; kinase still bound, per cent of control (RPS6KA6 KD2 (human)): 16%; kinase still bound, per cent of control (SIK2 (human)): 24%; kinase still bound, per cent of control (SLK (human)): 2.4%; kinase still bound, per cent of control (STK10 (human)): 28%; kinase still bound, per cent of control (STK35 (human)): 76%; kinase still bound, per cent of control (STK38L (human)): 90%; kinase still bound, per cent of control (TLK1 (human)): 74%; kinase still bound, per cent of control (TYRO3 (human)): 92%; kinase still bound, per cent of control (WEE1 (human)): 91% |
| O=C1Nc2ccc(I)cc2/C1=C/c1cc(Br)c(O)c(Br)c1 | 77 | 66 | 90 | 100 | 71 | 40 | 100 | 5.6 | 34 | 84 | 71 | 94 | 100 | 100 | 12 | 45 | 11 | 100 | 14 | 100 | kinase still bound, per cent of control (MAPK4 (human)): 100%; kinase still bound, per cent of control (MARK2 (human)): 44%; kinase still bound, per cent of control (MUSK (human)): 74%; kinase still bound, per cent of control (MYO3A (human)): 2.5%; kinase still bound, per cent of control (NEK1 (human)): 87%; kinase still bound, per cent of control (NTRK1 (human)): 82%; kinase still bound, per cent of control (PRKCQ (human)): 90%; kinase still bound, per cent of control (RAF1 (human)): 0.65%; kinase still bound, per cent of control (RIOK3 (human)): 17%; kinase still bound, per cent of control (RIPK1 (human)): 85%; kinase still bound, per cent of control (RIPK4 (human)): 76%; kinase still bound, per cent of control (RPS6KA6 KD2 (human)): 1.7%; kinase still bound, per cent of control (SIK2 (human)): 84%; kinase still bound, per cent of control (SLK (human)): 100%; kinase still bound, per cent of control (STK10 (human)): 100%; kinase still bound, per cent of control (STK35 (human)): 100%; kinase still bound, per cent of control (STK38L (human)): 31%; kinase still bound, per cent of control (TLK1 (human)): 100%; kinase still bound, per cent of control (TYRO3 (human)): 88%; kinase still bound, per cent of control (WEE1 (human)): 100% |
